Here are results for 30 compounds from patent US8937078B2, “Quinazolinones as prolyl hydroxylase inhibitors” (Janssen Pharmaceutica NV, priority 2009, dated 2015).

One experiment deals with T1, human PHD2 (PHD2181-417) (Homo sapiens, UniProt Q9GZT9).
T1 construct: Smt (SUMO) tag (cleaved yes); made in house; host or cells: E. coli BL21 (pBAD vector)
The experiment is described as follows: PHD enzymatic assay ([14C]-succinic acid production). Type of experiment: biochemical. The following applies: PHD2181-417, HIF-1α peptide 10 μM, average of results; for IC50: read-out: Enzyme pIC50 (converted). The method, boiled down:
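Activity measured as [14C]-succinic acid formed from [5-14C]-2-oxoglutarate over 10 minutes, with peptide substrate at 10 μM, in Tris-HCl pH 7.5 buffer containing catalase, DTT and ascorbate. Unreacted oxoglutarate removed by DNP derivatisation; supernatant beta-counted.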

Another experiment deals with Hep-3B cells. The experiment is described as follows: Cellular assay: erythropoietin secretion in Hep-3B cells. Conditions: Homo sapiens, Hep3B, 100 μM compound, 24 hours, percent of EPO secretion relative to assay control compound 7-[(4-Chloro-phenyl)-(5-methyl-isoxazol-3-ylamino)-methyl]-quinolin-8-ol, read-out: Cellular % EPO Stimulation. Type of experiment: cell-based, human. The method, boiled down:
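Hep-3B cells in DMEM with 10% FBS, treated 24 h after plating with compounds at 100 μM final for a further 24 h. Secreted EPO in supernatant measured by MSD electrochemiluminescence sandwich immunoassay with anti-EPO detection antibody.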

T1 sequence (Q9GZT9 181-417): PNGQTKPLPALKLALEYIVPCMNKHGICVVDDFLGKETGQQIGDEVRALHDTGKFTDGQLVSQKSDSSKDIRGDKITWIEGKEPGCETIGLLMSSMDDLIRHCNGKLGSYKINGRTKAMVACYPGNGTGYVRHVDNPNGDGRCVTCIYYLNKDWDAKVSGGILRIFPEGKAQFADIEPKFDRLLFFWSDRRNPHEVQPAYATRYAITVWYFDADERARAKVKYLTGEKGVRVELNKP

Turning to `Cc1cc2nc(-n3cc(C(=O)O)cn3)[nH]c(=O)c2cc1Oc1cccc(-c2ccccc2)c1` [Example 91, 1-[6-(biphenyl-3-yloxy)-7-methyl-4-oxo-3,4-dihydro-quinazolin-2-yl]-1H-pyrazole-4-carboxylic acid], at human PHD2 (PHD2181-417), the IC50 was 25.1 nM. In the experiment with Hep-3B cells, the Emax at 100 µM was determined as 75%.
For `CC(C)c1cccc2c(=O)[nH]c(-n3cc(C(=O)O)cn3)nc12` [Example 114, 1-(8-Isopropyl-4-oxo-3,4-dihydro-quinazolin-2-yl)-1H-pyrazole-4-carboxylic acid] the same measures were 251 nM and 16%.
For `CS(=O)(=O)c1cccc(-c2ccc3nc(-n4cc(C(=O)O)cn4)[nH]c(=O)c3c2)c1` [Example 206, 1-[6-(3-Methanesulfonyl-phenyl)-4-oxo-3,4-dihydro-quinazolin-2-yl]-1H-pyrazole-4-carboxylic acid] the same measures were 25.1 nM and 13%.
As to `CCc1ccc2nc(-n3cc(C(=O)O)cn3)[nH]c(=O)c2c1` [Example 128, 1-(6-Ethyl-4-oxo-3,4-dihydro-quinazolin-2-yl)-1H-pyrazole-4-carboxylic acid], the IC50 on human PHD2 (PHD2181-417) was 39.8 nM. For the same compound, the Emax at 100 µM in the experiment with Hep-3B cells is 53%.
For `CC(C)c1ccc2nc(-n3cc(C(=O)O)cn3)[nH]c(=O)c2c1` [Example 119, 1-(6-Isopropyl-4-oxo-3,4-dihydro-quinazolin-2-yl)-1H-pyrazole-4-carboxylic acid] the same measures were 15.8 nM and 115%.
The like results for `NC(=O)c1cccc(CNc2ccc3nc(-n4cc(C(=O)O)cn4)[nH]c(=O)c3c2)c1` [Example 179, 1-[6-(3-Carbamoyl-benzylamino)-4-oxo-3,4-dihydro-quinazolin-2-yl]-1H-pyrazole-4-carboxylic acid] were, in that order, 25.1 nM and 12%.
For `O=C(O)c1cnn(-c2nc3ccc(-c4ccccc4)cc3c(=O)[nH]2)c1` [Example 106, 1-(4-oxo-6-phenyl-3,4-dihydro-quinazolin-2-yl)-1H-pyrazole-4-carboxylic acid] the same measures were 31.6 nM and 129%.
Take `Cc1cccc(-c2ccc3nc(-n4cc(C(=O)O)cn4)[nH]c(=O)c3c2)c1` [Example 190, 1-(4-Oxo-6-m-tolyl-3,4-dihydro-quinazolin-2-yl)-1H-pyrazole-4-carboxylic acid]: the IC50 at human PHD2 (PHD2181-417) was 25.1 nM. Besides, the Emax at 100 µM in the experiment on Hep-3B cells was 91%.
For the compound `Cc1ccccc1-c1ccc2nc(-n3cc(C(=O)O)cn3)[nH]c(=O)c2c1` [Example 69, 1-(4-Oxo-6-o-tolyl-3,4-dihydro-quinazolin-2-yl)-1H-pyrazole-4-carboxylic acid], the “Enzyme pIC50” value on human PHD2 (PHD2181-417) worked out at 8.1. Further, the Emax at 100 µM with Hep-3B cells is 57%.
Regarding `O=C(O)c1cnn(-c2nc3c(F)ccc(F)c3c(=O)[nH]2)c1` [Example 116, 1-(5,8-Difluoro-4-oxo-3,4-dihydro-quinazolin-2-yl)-1H-pyrazole-4-carboxylic acid], the IC50 on human PHD2 (PHD2181-417) is 200 nM. Also, the Emax at 100 µM in the experiment on Hep-3B cells was determined as 17%.
Take `O=C(O)c1cnn(-c2nc3cc(Cl)c(Oc4ccc(Cl)cc4)cc3c(=O)[nH]2)c1` [Example 48, 1-[7-Chloro-6-(4-chloro-phenoxy)-4-oxo-3,4-dihydro-quinazolin-2-yl]-1H-pyrazole-4-carboxylic acid]: the IC50 at human PHD2 (PHD2181-417) is 31.6 nM. Besides, the Emax at 100 µM in the experiment with Hep-3B cells worked out at 51%.
The like results for `CC(C)Oc1ccc2c(=O)[nH]c(-n3cc(C(=O)O)cn3)nc2c1` [Example 149, 1-(7-Isopropoxy-4-oxo-3,4-dihydro-quinazolin-2-yl)-1H-pyrazole-4-carboxylic acid] were, in that order, 398 nM and 9%.
The like results for `O=C(O)c1cnn(-c2nc3ccc(NCc4c(Cl)cccc4Cl)cc3c(=O)[nH]2)c1` [Example 181, 1-[6-(2,6-Dichloro-benzylamino)-4-oxo-3,4-dihydro-quinazolin-2-yl]-1H-pyrazole-4-carboxylic acid] were, in that order, 25.1 nM and 118%.
In the case of `O=C(O)c1cnn(-c2nc3c(F)cccc3c(=O)[nH]2)c1` [Example 118, 1-(8-Fluoro-4-oxo-3,4-dihydro-quinazolin-2-yl)-1H-pyrazole-4-carboxylic acid], at human PHD2 (PHD2181-417), the IC50 was 79.4 nM. Further, the Emax at 100 µM in the experiment on Hep-3B cells was 16%.
The like results for `O=C(O)c1cnn(-c2nc3cc(Cl)c(Cl)cc3c(=O)[nH]2)c1` [Example 3, 1-(6,7-Dichloro-4-oxo-3,4-dihydro-quinazolin-2-yl)-1H-pyrazole-4-carboxylic acid] were, in that order, 25.1 nM and 37%.
In the case of `O=C(O)c1cnn(-c2nc3cccc(Cl)c3c(=O)[nH]2)c1` [Example 6, 1-(5-Chloro-4-oxo-3,4-dihydro-quinazolin-2-yl)-1H-pyrazole-4-carboxylic acid], the IC50 at human PHD2 (PHD2181-417) was 158 nM. For the same compound, the Emax at 100 µM in the experiment on Hep-3B cells turned out to be 19%.
For `CCOc1ccc2c(=O)[nH]c(-n3cc(C(=O)O)cn3)nc2c1` [Example 152, 1-(7-Ethoxy-4-oxo-3,4-dihydro-quinazolin-2-yl)-1H-pyrazole-4-carboxylic acid] the same measures were 158 nM and 38%.
Consider `COc1ccc(Oc2ccc3nc(-n4cc(C(=O)O)cn4)[nH]c(=O)c3c2)cc1` [Example 41, 1-[6-(4-Methoxy-phenoxy)-4-oxo-3,4-dihydro-quinazolin-2-yl]-1H-pyrazole-4-carboxylic acid], for which the IC50 at human PHD2 (PHD2181-417) was 20 nM. Besides, the Emax at 100 µM with Hep-3B cells came to 112%.
The like results for `Cc1cc2nc(-n3cc(C(=O)O)cn3)[nH]c(=O)c2cc1Oc1ccccc1` [Example 59, 1-(7-Methyl-4-oxo-6-phenoxy-3,4-dihydro-quinazolin-2-yl)-1H-pyrazole-4-carboxylic acid] were, in that order, 25.1 nM and 80%.
For `Cc1ccc(Oc2ccc3nc(-n4cc(C(=O)O)cn4)[nH]c(=O)c3c2)cc1` [Example 47, 1-(4-Oxo-6-p-tolyloxy-3,4-dihydro-quinazolin-2-yl)-1H-pyrazole-4-carboxylic acid] the same measures were 31.6 nM and 95%.
For `O=C(O)c1cnn(-c2nc3cc4c(cc3c(=O)[nH]2)OCCCO4)c1` [Example 137, 1-(4-Oxo-3,4,8,9-tetrahydro-7H-6,10-dioxa-1,3-diaza-cyclohepta[b]naphthalen-2-yl)-1H-pyrazole-4-carboxylic acid] the same measures were 50.1 nM and 15%.
As to `O=C(O)c1cnn(-c2nc3ccc(Cc4ccccc4)cc3c(=O)[nH]2)c1` [Example 105, 1-(6-benzyl-4-oxo-3,4-dihydro-quinazolin-2-yl)-1H-pyrazole-4-carboxylic acid], the IC50 on human PHD2 (PHD2181-417) is 31.6 nM. For the same compound, in the experiment on Hep-3B cells, the Emax at 100 µM came to 129%.
For `O=C(O)c1cnn(-c2nc3ccc(Cl)cc3c(=O)[nH]2)c1` [Example 153, 1-(6-Chloro-4-oxo-3,4-dihydro-quinazolin-2-yl)-1H-pyrazole-4-carboxylic acid] the same measures were 39.8 nM and 22%.
For `O=C(O)c1cnn(-c2nc3cc(F)c(Oc4c(Cl)cccc4Cl)c(F)c3c(=O)[nH]2)c1` [Example 101, 1-[6-(2,6-dichloro-phenoxy)-5,7-difluoro-4-oxo-3,4-dihydro-quinazolin-2-yl]-1H-pyrazole-4-carboxylic acid] the same measures were 25.1 nM and 24%.
The like results for `O=C(O)c1cnn(-c2nc3cc(F)c(Oc4ccc5c(c4)CCC5)cc3c(=O)[nH]2)c1` [Example 58, 1-[7-Fluoro-6-(indan-5-yloxy)-4-oxo-3,4-dihydro-quinazolin-2-yl]-1H-pyrazole-4-carboxylic acid] were, in that order, 31.6 nM and 62%.
`Cc1cccc(C)c1OCc1ccc2nc(-n3cc(C(=O)O)cn3)[nH]c(=O)c2c1` [Example 75, 1-[6-(2,6-Dimethyl-phenoxymethyl)-4-oxo-3,4-dihydro-quinazolin-2-yl]-1H-pyrazole-4-carboxylic acid]: at human PHD2 (PHD2181-417), the IC50 is 20 nM. Besides, the Emax at 100 µM in the experiment on Hep-3B cells stood at 20%.
For `O=C(Nc1ccccc1)Nc1ccc2nc(-n3cc(C(=O)O)cn3)[nH]c(=O)c2c1` [Example 168, 1-[4-Oxo-6-(3-phenyl-ureido)-3,4-dihydro-quinazolin-2-yl]-1H-pyrazole-4-carboxylic acid] the same measures were 31.6 nM and 4%.
For `O=C(O)c1cnn(-c2nc3cc(F)c(Oc4cccc(C(F)(F)F)c4)cc3c(=O)[nH]2)c1` [Example 95, 1-[7-fluoro-4-oxo-6-(3-trifluoromethyl-phenoxy)-3,4-dihydro-quinazolin-2-yl]-1H-pyrazole-4-carboxylic acid] the same measures were 20 nM and 61%.
For the compound `Cc1ccc(Oc2cc3c(=O)[nH]c(-n4cc(C(=O)O)cn4)nc3cc2F)cc1C` [Example 88, 1-[6-(3,4-dimethyl-phenoxy)-7-fluoro-4-oxo-3,4-dihydro-quinazolin-2-yl]-1H-pyrazole-4-carboxylic acid], the IC50 at human PHD2 (PHD2181-417) is 15.8 nM. The Emax at 100 µM with Hep-3B cells amounted to 95%.
For `CS(=O)(=O)c1ccc2nc(-n3cc(C(=O)O)cn3)[nH]c(=O)c2c1` [Example 157, 1-(6-Methanesulfonyl-4-oxo-3,4-dihydro-quinazolin-2-yl)-1H-pyrazole-4-carboxylic acid] the same measures were 31.6 nM and 17%.
